Columns and labels:
HeLa cells [1] = assay: Cytosolic delivery of AF488-dextran 10 kDa (confocal microscopy); assay type: cell-based, human
Protocol: Just before imaging, cell nuclei were stained with Hoechst 33342 (blue); the external AF488-dextran was washed away, and AF647-dextran (lavender) was added to mark the extracellular spaces and cell boundaries. […] Individual intensity scans across single cells, indicated by the yellow arrows, are plotted in Figure 5E,F as examples. To measure cytosolic dextran concentrations, dextran intensity was measured in the external spaces, where it is at background levels and in puncta-free, nuclear/cytosolic areas of each cell.
These experiments were done using a very low solution concentration of 0.1 μM AF488-dextran 10 kDa to minimize any possible self-quenching in endosomes and to minimize any osmotic effect of the dextran on endosomal stability. […] Before imaging, the AF488-dextran was washed off, and Cascade Blue dextran 10 kDa was added to mark the external spaces and cell boundaries. […] Dextran delivered to the cytosol and nucleus, which was the only intensity that we measured in Figure 6A,B, was identified by its diffuse and uniform intensity in the nucleus and cytosol of each cell. In Figure 6E, cytosolic and nuclear concentrations of dextran are expressed as a percent of the external concentration incubated with cells based on comparison to a standard curve of fluorescence intensity versus concentration that was measured separately at the same instrument settings.
After overnight incubation, external AF488-dextran (green) was washed off and replaced with Cascade Blue dextran (blue) or AF647-dextran (lavender) just before imaging to mark the external spaces and cell boundaries. Cells were also treated with Hoechst 33342 (blue) to stain the nuclei. Quantitation was performed by generating a standard curve from microscopy images of solutions of AF488-dextran of known concentrations. For quantification, we noted the intensity of the cell nuclei. Multiple small circular areas of interest of a preset size were selected in cells in areas that were in the nucleus or had no obvious puncta. The same was done for the standard curve images. The fluorescence of each point of interest was quantified using the Nikon Elements software, and the concentration was determined using a standard curve and expressed as a percent of the initial incubating concentration.

[2] = tested on: Chinese Hamster Ovary (CHO) cells; assay: Cytosolic delivery of yellow fluorescent protein (confocal microscopy); assay type: cell-based; conditions: 25 μM peptide, 3.5 μM external YFP, 37 °C
Protocol: To validate the dextran delivery experiments, we also delivered two separate fluorescent proteins of ∼27 kDa molecular weight to the cytosol of two different cell lines using C16-D-pHD108 (see Figure 7). HeLa cells were incubated overnight with 10 μM green fluorescent protein (GFP), and Chinese Hamster Ovary (CHO) cells were incubated overnight with 3.5 μM yellow fluorescent protein (YFP), with and without 25 μM C16-D-pHD108. Just before imaging, external GFP and YFP were washed off and replaced with TAMRA-dextran (red) or fluorescent protein mTurquoise (blue), respectively, to mark the cell boundaries and extracellular spaces. […] These cells, especially those incubated with the higher 10 μM concentration of GFP, show endosomes with entrapped FP, just as we observed for dextran delivery. […] The apparent nuclear concentration of GFP in cells incubated with GFP but no peptide is indistinguishable from the background. With an external concentration of 3.5 μM, the YFP concentration delivered to the cell cytosol ranges from 1 to 3 μM, with a median of about 1.2 μM or 35% of the external concentration. The apparent cytosolic concentration of YFP in cells incubated with YFP but no peptide is indistinguishable from the background. We also performed YFP delivery experiments at a 4 h time point, Supplemental Figure S4. […]
For fluorescent protein or fluorescein-(Fab)2 fragment delivery, HeLa cells were incubated at 37 °C overnight in the presence of GFP with and without C16-D-pHD108 and CHO cells were incubated at 37 °C overnight with YFP in the presence and absence of C16-D-pHD108. […] Quantitation of delivered protein was performed by comparing measured intensities from microscopy images of standard protein solutions of known concentrations. […]
E. YFP intensities from the nuclei and cytosol of the cells in panels A,B and C,D. The dotted lines are the intensities of standard reference solution of media only and 3.5 µM YFP measured at the same time under identical conditions. […]

HeLa cells [3] = assay: Cell binding (peptide remaining in solution by HPLC); assay type: cell-based, human; conditions: HeLa 10^6 cells/ml in PBS pH 7, 20 μM peptide, 30 min, room temperature, supernatant by HPLC
Protocol: This was done by equilibrating a peptide solution with and without cells for 30 min, followed by measurement of the peptide remaining in solution using reverse phase HPLC. […] The cells were also stained with the DNA staining dye Hoechst 33342. […] Cell/membrane staining by C16-D-pHD108-TAMRA continues to grow rapidly as peptides accumulate on the membranes.
HeLa or RAW 264.7 cells were trypsinized, washed, and counted. Cells were concentrated in a minimal amount of PBS. To measure binding, 25 μL of cells at a known count were transferred to tubes and 25 μL of peptide in PBS was added for a final peptide concentration of 20 μM. Samples were incubated for 30 min with gentle agitation at room temperature. Cells were pelleted in a swinging bucket centrifuge, and 30 μL of supernatant was subjected to HPLC to measure the peptide remaining in the solution. A sample without cells but treated identically was used as a negative control for binding to normalize the recovered peptide.

Question: Which results are given for `CCCCCCCCCCCCCCCC(=O)NCC(=O)N[C@@H](C(=O)NCC(=O)N[C@H](CCC(=O)O)C(=O)N[C@@H](C(=O)N[C@H](CC(C)C)C(=O)N[C@H](Cc1c[nH]cn1)C(=O)N[C@H](CCC(=O)O)C(=O)N[C@H](CC(C)C)C(=O)N[C@H](C)C(=O)N[C@H](CCC(=O)O)C(=O)NCC(=O)N[C@H](CC(C)C)C(=O)N1CCC[C@@H]1C(=O)N[C@H](CCC(=O)O)C(=O)N[C@H](CC(C)C)C(=O)N[C@H](CCC(N)=O)C(=O)N[C@H](CCC(=O)O)C(=O)N[C@H](Cc1c[nH]c2ccccc12)C(=O)N[C@@H](C(=O)N[C@H](Cc1c[nH]cn1)C(=O)N[C@H](C)C(=O)N[C@H](C)C(=O)N[C@H](CCC(N)=O)C(=O)N[C@H](CCC(N)=O)C(=O)N[C@H](CC(C)C)C(N)=O)[C@H](C)CC)C(C)C)[C@H](C)CC` [C16-D-pHD108]?
Answer: cytosolic dextran concentration (HeLa cells [1]; 3 μM peptide, 0.1 μM AF488-dextran 10 kDa, overnight, 37 °C): Low but statistically significant; cytosolic dextran concentration, average, percent of applied external concentration (HeLa cells [1]; 25 μM peptide, 0.1 μM AF488-dextran 10 kDa, overnight, 37 °C, ~50 cells): about 12%; dextran staining of nucleus and cytosol (HeLa cells [1]; 25 μM peptide, 25 μM AF488-dextran 10 kDa, overnight, 37 °C): diffusely and uniformly stained with dextran; delivery of dextran to the cytosol at 4 °C (HeLa cells [1]; 25 μM peptide, 4 °C): does not enable any measurable delivery of dextran to the cytosol; plasma membrane permeabilization (entry of Cascade Blue dextran added before imaging) (HeLa cells [1]; 25 μM peptide, 37 °C): not permeabilized; cytosolic delivery of AF488-dextran, C16-L-pHD108 compared with C16-D-pHD108 (HeLa cells [1]; HeLa, overnight, 37 °C): significantly more active; YFP delivered to cytosol, median as percent of the external solution ([2]; 4 h): about 13%; YFP concentration delivered to cell cytosol, median ([2]; overnight): about 1.2 μM; YFP delivered to cytosol, median as percent of the external concentration ([2]; overnight): ~35%; binding to cells at pH 7 (HeLa cells [3]): no measurable binding

— paper PMC11656837, “pH-Responsive Peptide Nanoparticles Deliver Macromolecules to Cells via Endosomal Membrane Nanoporation” (ACS Nano, 2024)
